Measured values as given in US6703418B2, “Appetite stimulation and induction of weight gain in patients suffering from symptomatic HIV infection” (Unimed Pharmaceuticals, Inc., priority 1991, dated 2004).

Assays:
[1] = cancer chemotherapy patients; compared with prochlorperazine; cited from earlier work
[2] = Example I: ten symptomatic HIV patients treated with delta-9-tetrahydrocannabinol as dronabinol, weight change; assay type: in vivo, human
Description: Soft gelatin capsules were filled with delta-9-tetrahydrocannabinol in sesame oil (dronabinol). Capsules were filled with 2.5 mg delta-9-tetrahydrocannabinol per capsule or 5 mg delta-9-tetrahydrocannabinol per capsule.
Ten symptomatic HIV patients were treated with delta-9-tetrahydrocannabinol. […] The infectious complications which they had represent the spectrum of those usually seen in a symptomatic HIV-infected population.
Most of the patients had received or were on antiviral therapy, primarily zidovudine (azidothymidine). Two had previously received and one was receiving megesterol acetate as well. Patients received delta-9-tetrahydrocannabinol as dronabinol (delta-9-tetrahydrocannabinol in sesame oil in soft gelatin capsules), usually at a dose of 2.5 mg, for one to five months. Treatment continued for most of the patients at the time of this analysis. The dose varied. The patients were instructed to take medication up to four times daily as needed; many took it somewhat less often.
Initially, patients were losing a median of 0.93 kg/mo. On therapy, they gained 0.54 kg/mo. The median difference on versus pre-therapy was 1.92 kg/mo.

[3] = cancer patients, open study; cited from earlier work
[4] = Example II: prospective dose-ranging study of dronabinol in patients with symptomatic HIV infection, weight change and side effects; assay type: in vivo, human
Description: In a prospective, dose-ranging study, 23 patients with symptomatic HIV infection were treated with dronabinol at a dose of 2.5 mg twice daily to 5.0 mg three times daily. Of these, 13 completed approximately one month on therapy.
At a dose which appears optimal, seven of eight patients completed one month treatment. […] Most of those patients who did experience side effects found them tolerable. […] The median rate of weight loss prior to therapy was 1.62 kg/mo; on therapy, the median weight gain was 1.56 kg/mo. The median improvement in the rate of weight change was 3.06 kg/mo, or approximately 1.5 lbs/wk.

[5] = oral; cancer chemotherapy patients; crossover; cited from earlier work
[6] = advanced cancer patients on chemotherapy, versus those not receiving it; cited from earlier work
[7] = children and adolescents 6-19 years of age; cited from earlier work

Compound: CCCCCc1cc(O)c2c(c1)OC(C)(C)[C@@H]1CCC(C)=C[C@@H]21 [delta-9-tetrahydrocannabinol]
- reported hunger [1]: reported feeling more hungry than patients on prochlorperazine
- number of patients who gained weight ([2]; of ten symptomatic HIV patients): Seven patients gained weight
- number of patients with a decrease in weight loss ([2]; of ten symptomatic HIV patients, besides those who gained weight): two others had a decrease in weight loss
- median difference in rate of weight change, on versus pre-therapy ([2]; ten symptomatic HIV patients, usually 2.5 mg oral, one to five months): 1.92 kg/mo
- median weight gain on therapy ([2]; ten symptomatic HIV patients, usually 2.5 mg oral, up to four times daily as needed, one to five months, pre-therapy median loss 0.93 kg/mo): 0.54 kg/mo
- appetite [3]: appetite increases
- rate of weight loss [3]: lessening of the rate of weight loss
- number of patients who gained weight ([4]; all doses, 2.5 mg twice daily to 5.0 mg three times daily, of 13 patients completing about one month on therapy): seven gained weight
- side effects ([4]; dose which appears optimal): most patients did not experience side effects
- median improvement in the rate of weight change ([4]; dose which appears optimal, converted from kg/mo): approximately 1.5 lbs/wk
- number of patients who gained weight ([4]; dose which appears optimal, of seven patients completing one month): five of the seven patients gained weight
- median improvement in the rate of weight change ([4]; dose which appears optimal, on therapy versus prior to therapy): 3.06 kg/mo
- median weight gain on therapy ([4]; dose which appears optimal, pre-therapy median loss 1.62 kg/mo): 1.56 kg/mo
- subjects reporting an increased food intake [5]: 50%
- weight maintenance [6]: maintained their weight better
- appetite stimulating effect [7]: Results suggestive of an appetite stimulating effect
